Test results taken from article PMC5078989, “Targeted inhibition of the COP9 signalosome for treatment of cancer” (Nature Communications, 2016).
pEC50: −log10 of the molar value.

System: panel of cancer cell lines
Assay: Cell viability (CellTiter-Glo) dose-response across cancer cell line panel;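 also: after 72 h compound incubation with CellTiter-Glo ATP readout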
Type: cell-based, human
Details: Homo sapiens
Source text: Next, we explored the effect of CSN5 inhibition on the viability of cancer cells. To obtain a comprehensive picture, we generated dose–response curves with a CSN5 inhibitor across more than 500 cancer cell lines in a previously described standardized setting[47] (Supplementary Data 1).
A standardized CellTiter-Glo Assay (Promega #G7570) based on the quantification of ATP was applied according to the manufacturer's protocol to measure the amount of viable cells in culture. In brief, cells were seeded into 384-well plates at optimal density for each cell line. After 4 h, compounds were added at different concentrations in growth medium and incubated for another 72 h in a humidifying chamber at 37 °C and 5% CO2. […] EC50 values were calculated from the plot of percentage of inhibition versus inhibitor concentration using the nonlinear regression analysis software Origin 7.5SR6 (OriginLab Corp.).

## CC(C)C[C@H](NC(=O)[C@H](Cc1ccccc1)NC(=O)c1cnccn1)B(O)O [Bortezomib]
OVISE
  pEC50: 8.01
OVSAHO
  pEC50: 8.04
P3HR-1, P3HR-1
  pEC50: 8.08
P12-Ichikawa
  pEC50: 8.74
P31-FUJ, P31/FUJ
  pEC50: 8.23
PANC-1, cell line PANC-1
  pEC50: 8.06
PANC-03-27, cell line Panc 03.27
  pEC50: 7.98
PC-14, cell line PC-14
  pEC50: 7.82
PE/CA-PJ41 (clone D2)
  pEC50: 8.01
PEER
  pEC50: 7.93
PF-382, PF-382
  pEC50: 8.56
PL-21, PL-21
  pEC50: 7.93
PLC-PRF-5, PLC/PRF/5
  pEC50: 8.12
PSN1, cell line PSN1
  pEC50: 7.98
PaTu 8988s, PA-TU-8988S
  pEC50: 7.86
Panc 02.03, cell line Panc 02.03
  pEC50: 7.96
Panc 04.03, cell line Panc 04.03
  pEC50: 7.65
Panc1005, cell line Panc 10.05
  pEC50: 8.28
RCC10RGB
  pEC50: 8.29
RCH-ACV
  pEC50: 8.68
RD
  pEC50: 8.11
REH
  pEC50: 8.33
RKN
  pEC50: 7.79
RMUG-S
  pEC50: 7.17
RPMI 8402, RPMI-8402
  pEC50: 8.23
RPMI-7951, cell line RPMI-7951
  pEC50: 7.99
RPMI-8226, cell line RPMI 8226
  pEC50: 8.48
RS4-11, cell line RS4;11
  pEC50: 8.77
RT-112, RT-112
  pEC50: 8.28
RVH-421, RVH-421
  pEC50: 8.07
Raji, cell line Raji
  pEC50: 7.97
Rec1, cell line REC-1
  pEC50: 8.02
Rh18, cell line RH-18
  pEC50: 7.51
Rh41, cell line RH-41
  pEC50: 8.13
Ri-1, RI-1
  pEC50: 8.31
SCaBER, cell line SCaBER
  pEC50: 7.85
SEM
  pEC50: 8.62
SET-2, cell line Set-2
  pEC50: 7.98
SF-126, SF126
  pEC50: 7.88
SF-295, cell line SF-295
  pEC50: 7.93
SH-4, SH-4
  pEC50: 8.34
SH-10-TC, cell line SH-10-TC
  pEC50: 7.79
SHP77, SHP-77
  pEC50: 7.92
SIG-M5, SIG-M5
  pEC50: 8.29
SJRH30, cell line SJRH30
  pEC50: 7.78
SJSA-1, cell line SJSA-1
  pEC50: 7.58
SK-BR-3, cell line SK-BR-3
  pEC50: 8.19
SK-CO-1, SK-CO-1
  pEC50: 8.24
SK-ES1, cell line SK-ES-1
  pEC50: 8.01
SK-LMS-1, SK-LMS-1
  pEC50: 8.08
SK-LU-1, SK-LU-1
  pEC50: 8.02
SK-MEL3, cell line SK-MEL-3
  pEC50: 8.05
SK-MEL-1, SK-MEL-1
  pEC50: 7.73
SK-MEL-2, cell line SK-MEL-2
  pEC50: 7.98
SK-MEL-5, cell line SK-MEL-5
  pEC50: 8.06
SK-MEL-24, SK-MEL-24
  pEC50: 7.71
SK-MEL-30, cell line SK-MEL-30
  pEC50: 7.97
SK-MES-1, cell line SK-MES-1
  pEC50: 7.80
SK-N-AS, cell line SK-N-AS
  pEC50: 8.14
SK-N-DZ
  pEC50: 8.05
SK-N-FI, cell line SK-N-FI
  pEC50: 7.94
SK-N-SH
  pEC50: 8.14
SK-OV-3, cell line SK-OV-3
  pEC50: 7.57
SK-UT-1, SK-UT-1
  pEC50: 8.07
SKM-1, SKM-1
  pEC50: 8.43
SKNBE2, SK-N-BE(2)
  pEC50: 8.06
SNG-M
  pEC50: 8.15
SNU1, SNU-1
  pEC50: 7.77
SNU878, SNU-878
  pEC50: 7.64
SNU-16, cell line SNU-16
  pEC50: 8.24
SNU-119
  pEC50: 7.71
SNU-216, SNU-216
  pEC50: 7.82
SNU-449, SNU-449
  pEC50: 7.52
SNU-475, SNU-475
  pEC50: 7.61
SNU-626
  pEC50: 7.82
SNU-738
  pEC50: 7.49
SNU-1079
  pEC50: 8.05
SNU-C1, SNU-C1
  pEC50: 8.42
SNU-C5
  pEC50: 7.78
